Like-named read-outs stand apart in the source and are kept apart here.

The series in a line: Log P by HPLC on reversed phase columns, method [a] (EEC directive 79/831 Annex V.A8). The series is classed as physicochemical. The method, then: Measurement of Log P values as provided herein was performed according to EEC directive 79/831 Annex V.A8 by HPLC (High Performance Liquid Chromatography) on reversed phase columns with the following methods: • ^[a] Log P value is determined by measurement of LC-UV, in an acidic range, with 0.1% formic acid in water and acetonitrile as eluent (linear gradient from 10% acetonitrile to 95% acetonitrile). • ^[b] Log P value is determined by measurement of LC-UV, in a neutral range, with 0.001 molar ammonium acetate solution in water and acetonitrile as eluent (linear gradient from 10% acetonitrile to 95% acetonitrile). • ^[c] Log P value is determined by measurement of LC-UV, in an acidic range, with 0.1% phosphoric acid and acetonitrile as eluent (linear gradient from 10% acetonitrile to 95% acetonitrile). If more than one Log P value is available within the same method, all the values are given and separated by “+”. Calibration was done with straight-chain alkan2-ones (with 3 to 16 carbon atoms) with known Log P values (measurement of Log P values using retention times with linear interpolation between successive alkanones). Lambda-max-values were determined using UV-spectra from 200 nm to 400 nm and the peak values of the chromatographic signals In table 1, the log P values were determined according to method [^a]. In table 2, the log P values were determined according to method [^a].

Where [1] appears, read: reversed phase HPLC column, log P determined according to method [a] (HPLC on reversed phase columns), read-out: logP.
Where [2] appears, read: reversed phase HPLC column, method [a], HPLC on reversed phase columns, read-out: logP.
Where [3] appears, read: log P determined according to method [a] (HPLC on reversed phase columns).

As to `CC(Nc1ncc(-c2nnc(C(F)F)o2)cn1)c1ccccc1F` (racemic) [I.124, 5-[5-(difluoromethyl)-1,3,4-oxadiazol-2-yl]-N-[(1RS)-1-(2-fluorophenyl)ethyl]pyrimidin-2-amine], under setting [1], the chromatographic logP was 2.89.
`CCCC(Nc1ncc(-c2nnc(C(F)F)o2)cn1)c1ccccc1` (racemic) [I.140, 5-[5-(difluoromethyl)-1,3,4-oxadiazol-2-yl]-N-[(1RS)-1-phenylbutyl]pyrimidin-2-amine]: under setting [1], the chromatographic logP was 3.54.
With `CC(Nc1ncc(-c2nnc(C(F)F)o2)cn1)c1c(F)cccc1F` (racemic) [I.151, 5-[5-(difluoromethyl)-1,3,4-oxadiazol-2-yl]-N-[(1RS)-1-(2,6-difluorophenyl)ethyl]pyrimidin-2-amine], the chromatographic logP under setting [1] stood at 3.1.
As for `CON(c1ncc(-c2nnc(C(F)F)o2)cn1)C(C)c1cccc(C(F)(F)F)c1` (racemic) [I.184, N-{5-[5-(difluoromethyl)-1,3,4-oxadiazol-2-yl]pyrimidin-2-yl}-O-methyl-N-{(1RS)-1-[3-(trifluoromethyl)phenyl]ethyl}hydroxylamine], the chromatographic logP under setting [2] was 3.94.
The same measure, in the same setting: the same measure for `CC(Nc1ncc(-c2nnc(C(F)F)o2)cn1)C1(C)CC1` (racemic) [I.186, 5-[5-(difluoromethyl)-1,3,4-oxadiazol-2-yl]-N-[(1RS)-1-(1-methylcyclopropyl)ethyl]pyrimidin-2-amine]: 2.91; for `CC(Nc1ncc(-c2nnc(C(F)F)o2)cn1)c1cccnc1` (racemic) [I.188, 5-[5-(difluoromethyl)-1,3,4-oxadiazol-2-yl]-N-[(1RS)-1-(pyridin-3-yl)ethyl]pyrimidin-2-amine]: 0.74.
As for `CC(Nc1ncc(-c2nnc(C(F)F)o2)cn1)c1ccccn1` (racemic) [I.189, 5-[5-(difluoromethyl)-1,3,4-oxadiazol-2-yl]-N-[(1RS)-1-(pyridin-2-yl)ethyl]pyrimidin-2-amine], the chromatographic logP under setting [2] turned out to be 1.
`CC(Nc1ncc(-c2nnc(C(F)F)o2)cn1)c1ccncc1` (racemic) [I.190, 5-[5-(difluoromethyl)-1,3,4-oxadiazol-2-yl]-N-[(1RS)-1-(pyridin-4-yl)ethyl]pyrimidin-2-amine]: the chromatographic logP under setting [2] was 0.65.
On the same count and under the same terms, for `CC(Nc1ncc(-c2nnc(C(F)F)o2)cn1)c1ncccn1` (racemic) [I.191, 5-[5-(difluoromethyl)-1,3,4-oxadiazol-2-yl]-N-[(1RS)-1-(pyrimidin-2-yl)ethyl]pyrimidin-2-amine] the value was 1.49.
Still for that read-out and setting: the same measure for `CC(Nc1ncc(-c2nnc(C(F)F)o2)cn1)c1cccs1` (racemic) [I.192, 5-[5-(difluoromethyl)-1,3,4-oxadiazol-2-yl]-N-[(1RS)-1-(2-thienyl)ethyl]pyrimidin-2-amine]: 2.7; for `CC(Nc1ncc(-c2nnc(C(F)F)o2)cn1)C1CCCCC1` (racemic) [I.193, N-[(1RS)-1-cyclohexylethyl]-5-[5-(difluoromethyl)-1,3,4-oxadiazol-2-yl]pyrimidin-2-amine]: 3.74; for `CC(Nc1ncc(-c2nnc(C(F)F)o2)cn1)c1cscn1` (racemic) [I.194, 5-[5-(difluoromethyl)-1,3,4-oxadiazol-2-yl]-N-[(1RS)-1-(1,3-thiazol-4-yl)ethyl]pyrimidin-2-amine]: 1.8.
`Fc1ccc([C@H]2C[C@H]2Nc2ncc(-c3nnc(C(F)F)o3)cn2)cc1` (racemic) [I.206, 5-[5-(difluoromethyl)-1,3,4-oxadiazol-2-yl]-N-[rac-(1R,2R)-2-(4-fluorophenyl)cyclopropyl]pyrimidin-2-amine]: the chromatographic logP under setting [2] was 2.97.
For the compound `COc1ccc(C(C)Nc2ncc(-c3nnc(C(F)F)o3)cn2)cc1` (racemic) [I.207, 5-[5-(difluoromethyl)-1,3,4-oxadiazol-2-yl]-N-[(1RS)-1-(4-methoxyphenyl)ethyl]pyrimidin-2-amine], the chromatographic logP under setting [2] came to 2.75.
For `COc1ccccc1C(C)Nc1ncc(-c2nnc(C(F)F)o2)cn1` (racemic) [I.209, 5-[5-(difluoromethyl)-1,3,4-oxadiazol-2-yl]-N-[(1RS)-1-(2-methoxyphenyl)ethyl]pyrimidin-2-amine], the chromatographic logP under setting [2] amounted to 2.95.
The same measure, in the same setting: the same measure for `CC(Cc1ccc(F)cc1)Nc1ncc(-c2nnc(C(F)F)o2)cn1` (racemic) [I.210, 5-[5-(difluoromethyl)-1,3,4-oxadiazol-2-yl]-N-[(2RS)-1-(4-fluorophenyl)propan-2-yl]pyrimidin-2-amine]: 3.12; for `CC(CNc1ncc(-c2nnc(C(F)F)o2)cn1)c1ccc(F)cc1` (racemic) [I.211, 5-[5-(difluoromethyl)-1,3,4-oxadiazol-2-yl]-N-[(2RS)-2-(4-fluorophenyl)propyl]pyrimidin-2-amine]: 3.13; for `CC(Nc1ncc(-c2nnc(C(F)F)o2)cn1)c1cccc(Cl)c1` (racemic) [I.213, N-[(1RS)-1-(3-chlorophenyl)ethyl]-5-[5-(difluoromethyl)-1,3,4-oxadiazol-2-yl]pyrimidin-2-amine]: 3.2.
Compound `CC(Nc1ncc(-c2nnc(C(F)F)o2)cn1)c1ccc(Cl)nc1` (racemic) [I.214, N-[(1RS)-1-(6-chloropyridin-3-yl)ethyl]-5-[5-(difluoromethyl)-1,3,4-oxadiazol-2-yl]pyrimidin-2-amine] yielded a chromatographic logP of 2.27.
Consider `CC(Nc1ncc(-c2nnc(C(F)F)o2)cn1)c1ccc(F)cc1F` (racemic) [I.215, 5-[5-(difluoromethyl)-1,3,4-oxadiazol-2-yl]-N-[(1RS)-1-(2,4-difluorophenyl)ethyl]pyrimidin-2-amine], for which the chromatographic logP under setting [2] was 3.01.
For the compound `FC(F)c1nnc(-c2cnc(NC3CCCC3c3ccccc3)nc2)o1` (racemic) [I.217, 5-[5-(difluoromethyl)-1,3,4-oxadiazol-2-yl]-N-[(1RS)-2-phenylcyclopentyl]pyrimidin-2-amine], the chromatographic logP under setting [2] worked out at 3.44.
As for `CCC(Nc1ncc(-c2nnc(C(F)F)o2)cn1)c1ccc(Cl)cc1` (racemic) [I.230, N-[(1RS)-1-(4-chlorophenyl)propyl]-5-[5-(difluoromethyl)-1,3,4-oxadiazol-2-yl]pyrimidin-2-amine], the chromatographic logP under setting [2] was 3.58.
Same read-out and setting: for `CC(Nc1ncc(-c2nnc(C(F)F)o2)cn1)c1ccc2ccccc2c1` (racemic) [I.232, 5-[5-(difluoromethyl)-1,3,4-oxadiazol-2-yl]-N-[(1RS)-1-(2-naphthyl)ethyl]pyrimidin-2-amine] the value was 3.45; for `CC(Nc1ncc(-c2nnc(C(F)F)o2)cn1)c1ccc2ccccc2n1` (racemic) [I.233, 5-[5-(difluoromethyl)-1,3,4-oxadiazol-2-yl]-N-[(1RS)-1-(quinolin-2-yl)ethyl]pyrimidin-2-amine], 2.04.
On the same count and under the same terms, for `Cc1ccc(C(C)(CO)Nc2ncc(-c3nnc(C(F)F)o3)cn2)cc1C` (racemic) [I.235, (2RS)-2-({5-[5-(difluoromethyl)-1,3,4-oxadiazol-2-yl]pyrimidin-2-yl}amino)-2-(3,4-dimethylphenyl)propan-1-ol] the value was 2.68; for `CC(Nc1ncc(-c2nnc(C(F)F)o2)cn1)c1cccc(C(F)(F)F)c1` (racemic) [I.239, 5-[5-(difluoromethyl)-1,3,4-oxadiazol-2-yl]-N-{(1RS)-1-[3-(trifluoromethyl)phenyl]ethyl}pyrimidin-2-amine], 3.37.
On to `CC(Nc1ncc(-c2nnc(C(F)F)o2)cn1)c1ccccc1C(F)(F)F` (racemic) [I.240, 5-[5-(difluoromethyl)-1,3,4-oxadiazol-2-yl]-N-{(1RS)-1-[2-(trifluoromethyl)phenyl]ethyl}pyrimidin-2-amine], for which the chromatographic logP under setting [2] was 3.42.
On the same count and under the same terms, the same measure for `FC(F)c1nnc(-c2cnc(NC(Cc3ccccc3)c3ccccc3)nc2)o1` (racemic) [I.245, 5-[5-(difluoromethyl)-1,3,4-oxadiazol-2-yl]-N-[(1RS)-1,2-diphenylethyl]pyrimidin-2-amine]: 3.68; for `CC(Nc1ncc(-c2nnc(C(F)F)o2)cn1)c1cccc(OC(F)(F)F)c1` (racemic) [I.257, 5-[5-(difluoromethyl)-1,3,4-oxadiazol-2-yl]-N-{(1RS)-1-[3-(trifluoromethoxy)phenyl]ethyl}pyrimidin-2-amine]: 3.53; for `CCC(Nc1ncc(-c2nnc(C(F)F)o2)cn1)c1ccccc1Br` (racemic) [I.260, N-[(1RS)-1-(2-bromophenyl)propyl]-5-[5-(difluoromethyl)-1,3,4-oxadiazol-2-yl]pyrimidin-2-amine]: 3.64.
As to `NNC(=O)c1cnc(NC2(c3ccccc3)CCC2)nc1` [2-[(1-phenylcyclobutyl)amino]pyrimidine-5-carbohydrazide], the chromatographic logP (reversed phase HPLC column, Method A: LC-UV, acidic range, 0.1% formic acid in water and acetonitrile, read-out: Log P) turned out to be 1.63.
Under setting [3], `O=C(O)c1ccc(-c2nnc(C(F)F)o2)cc1` [Example I-001] yielded a logP of 1.66.
With `CSc1ccc(-c2nnc(C(F)F)o2)cc1` [Example I-002], the logP under setting [3] stood at 2.75.
`COC(=O)c1ccc(-c2nnc(C(F)F)o2)cc1` [Example I-003] displayed a logP under setting [3] of 2.35.
`O=C(O)c1ccc(-c2nnc(C(F)(F)F)o2)cc1` [Example I-004] had a logP under setting [3] of 2.20.

Usually logP stands for a log measure of how a compound divides between an organic and an aqueous phase. A higher logP goes with a more lipophilic compound.
